The test system of one series is AML patient blast cells. Nature of the series: Flow cytometry (MMP, ROS, GSH, membrane integrity) of primary AML patient blasts treated ex vivo. Format: cell-based, human. How it is done:
• Cell lines: OCI-AML2, OCI-AML5, OCI-M2 (p53 mutant M6), MV4-11 (FLT3-ITD) • Patients were treated by the Princess Margaret Hospital Leukemia Program. • Primary blasts from 10 AML patients isolated by density gradient or RBC lysis, maintained in a-MEM+10% FBS±10% 5637-conditioned medium. Flow Cytometry Protocol: • Combined staining at 37° for: • MMP—DiIC1(5) 40 nM 30′ • ROS—carboxy-dichlorofluorescin […] or dihydrorhodamine 123 […] for 30′ • GSH—monobromobimane […] for 5′ • Surface membrane integrity—propidium iodide […] for 5′ • Samples run on 3 laser flow cytometer (Gallios, Beckman-Coulter)
A general note: A flow cytometer gives signals particle by particle.

The next series relates to metastatic melanoma. The conditions noted are these: cited from earlier work.

`CN(NC(=O)CC(=O)NN(C)C(=S)c1ccccc1)C(=S)c1ccccc1` [elesclomol, N-malonyl-bis(N′-methyl-N′-thiobenzoylhydrazide)]: the “mitochondrial dysfunction and cell death” value in the series with AML patient blast cells (ex vivo treatment of primary blast cells from patients with AML) is “rapidly induced mitochondrial dysfunction and cell death”. Moreover, in the series on metastatic melanoma (elevated LDH population), the “primary endpoint, difference between the two arms” value is recorded as “no difference was observed” and the survival endpoint entry is given as “negative impact”. Further, in the series with metastatic melanoma (normal LDH population), the “progression-free survival improvement (primary endpoint)” value is “achieved” and the safety profile entry was “acceptable safety profile”.

Consider `CN1C(c2ccccc2)=[SH][Cu]23[SH]=C(c4ccccc4)N(C)[N]2C(=O)CC(=O)[N]13` [elesclomol-Cu(II)], for which the ROS entry in the series on AML patient blast cells (Patient #123 blasts, 100nM, 6 hr, FIG. 3a) is recorded as “slight increase in ROS”. For the same compound, in the series with AML patient blast cells (Patient #123 blasts, FIG. 3a), the “loss of mitochondrial membrane potential versus outer membrane integrity (dual MMP/PI plots)” value is given as “loss of mitochondrial membrane potential precedes the loss of outer membrane integrity”, the “reduced GSH” value is “lost co-incident with the loss of MMP” and the “sensitivity of primary patient blasts compared with AML cell lines” value is recorded as “more drug-sensitive”. Besides, in the series on AML patient blast cells (Patient #126 blasts, FIG. 3d), the sensitivity of blasts result is on record as “highly sensitive”. Further, in the series with AML patient blast cells (Patient #127 blasts, 30 nM, already evident at 6 hr, FIG. 3b), the GSH entry is given as “loss of GSH”. Besides, in the series on AML patient blast cells (Patient #131 blasts (higher baseline GSH), FIG. 3c), the sensitivity of blasts entry is on record as “less sensitive”. Moreover, the “GSH and MMP” value with AML patient blast cells (Patient #131 blasts, FIG. 3c) was “loss of GSH co-incident with loss of MMP”. The ROS result in the series with AML patient blast cells (Patient #131 blasts, most evident at 30 nM 24 hr, FIG. 3c) is “increased ROS”. Besides, the “depletion of GSH and dissipation of mitochondrial membrane potential” value in the series on AML patient blast cells (all cases) is “occurred in all cases”. The “impairment of primary blasts” value in the series with AML patient blast cells (all samples, 30 nM) is recorded as “significant impairment”.

(Values after patent US8822532B2, “Bis[thiohydrazide amide] compounds for treating leukemia” (Synta Pharmaceuticals Corp., priority 2009, dated 2014).)
